Assay results as given in ChEMBL document CHEMBL1138674, “Validation of automated docking programs for docking and database screening against RNA drug targets” (J Med Chem, 2004).

assay: Dissociation constant of the compound; type: physicochemical

Row | Molecule | Kd [µM]
1 | N=C(N)NCCC[C@H](N)C(=O)O (stereo in doubt; form 1) [ARGININE] | 60
2 | NC[C@@H]1O[C@H](O[C@H]2[C@@H](O)[C@H](O[C@@H]3[C@@H](O)[C@H](N)C[C@H](N)[C@H]3O[C@H]3O[C@H](CN)[C@@H](O)[C@H](O)[C@H]3N)O[C@@H]2CO)[C@H](N)[C@@H](O)[C@@H]1O (stereo in doubt; form 1) [FRAMYCETIN] | 1
3 | N=C(N)NCCC[C@H](N)C(=O)O (stereo in doubt; form 2) [ARGININE] | 1000
4 | NC[C@@H]1O[C@H](O[C@H]2[C@@H](O)[C@H](O[C@@H]3[C@@H](O)[C@H](N)C[C@H](N)[C@H]3O[C@H]3O[C@H](CN)[C@@H](O)[C@H](O)[C@H]3N)O[C@@H]2CO)[C@H](N)[C@@H](O)[C@@H]1O (stereo in doubt; form 2) [FRAMYCETIN] | 0.1
5 | CC(=O)c1ccc2c(c1)N(CCCN(C)C)c1ccccc1S2 [ACEPROMAZINE] | 0.1
6 | Nc1ncnc2c1ncn2[C@@H]1O[C@H](COP(=O)(O)O)[C@@H](O)[C@H]1O [ADENOSINE PHOSPHATE] | 2.7
7 | O=C(O)CCCC[C@@H]1SC[C@@H]2NC(=O)N[C@@H]21 [BIOTIN] | 6
8 | NC(=O)NCCC[C@H](N)C(=O)O [L-CITRULLINE] | 68
9 | NC[C@H]1O[C@H](O[C@H]2[C@H](O)[C@@H](O)[C@H](N)C[C@@H]2N)[C@H](N)[C@@H](O)[C@@H]1O [NEAMINE] | 1
10 | NC[C@@H]1O[C@H](O[C@H]2[C@@H](O)[C@H](O[C@@H]3[C@@H](O)[C@H](N)C[C@H](N)[C@H]3O[C@H]3O[C@H](CO)[C@@H](O)[C@H](O)[C@H]3N)O[C@@H]2CO)[C@H](N)[C@@H](O)[C@@H]1O [PAROMOMYCIN] | 0.2
11 | Cc1cc2nc3c(=O)[nH]c(=O)nc-3n(C[C@H](O)[C@H](O)[C@H](O)COP(=O)(O)O)c2cc1C [RIBOFLAVIN 5'-PHOSPHATE] | 0.5
12 | Cn1c(=O)c2[nH]cnc2n(C)c1=O [THEOPHYLLINE] | 0.4
13 | NC[C@H]1O[C@H](O[C@H]2[C@H](O)[C@@H](O[C@H]3O[C@H](CO)[C@@H](O)[C@H](N)[C@H]3O)[C@H](N)C[C@@H]2N)[C@H](N)C[C@@H]1O [TOBRAMYCIN] | 0.0009
14 | GENTAMICIN | 0.01
